Data published in patent US20040248887A1, “Inhibitors of cathepsin S” (IRM LLC, priority 2003, published 2004).

Biological target: Cathepsin S (Homo sapiens, UniProt P25774)
Assay: Cathepsin S inhibition, fluorogenic peptide substrate kinetic assay
Assay type: biochemical
Conditions: Table II; Cathepsin S inhibition constant, pH5.5; read-out: Ki Cat. S
How it was run: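 Reactions were started with 50 μM (final) acetyl-His-Pro-Val-Lys-aminocarbamoylcoumarin, and hydrolysis was followed by fluorescence (ex 380/em 450 nm). Apparent inhibition constants from enzyme progress curves were converted to Ki for competitive inhibitors using substrate concentration and Km.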

Chain of Cathepsin S (P25774 115-331, species assumed): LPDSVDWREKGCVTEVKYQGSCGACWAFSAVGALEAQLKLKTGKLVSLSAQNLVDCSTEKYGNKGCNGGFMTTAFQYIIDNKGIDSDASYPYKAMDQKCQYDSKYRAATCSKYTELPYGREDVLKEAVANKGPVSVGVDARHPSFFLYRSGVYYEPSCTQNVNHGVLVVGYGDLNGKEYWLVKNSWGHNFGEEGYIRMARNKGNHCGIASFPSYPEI

Structure (SMILES) | Ki [µM]
O=C(N[C@@H](CC1CCCCC1)C(=O)NCCN1CCc2cc(F)ccc21)C1CCN(c2ccc(Cl)nn2)CC1 [Compound 56, 1-(6-Chloro-pyridazin-3-yl)-piperidine-4-carboxylic acid (S)-{2-cyclohexyl-1-[2-(5-fluoro-2,3-dihydro-indol-1-yl)-ethylcarbamoyl]-ethyl}-amide] | < 1
O=C(N[C@@H](Cc1cccc(Cl)c1)C(=O)NCCN1CCc2cc(F)ccc21)c1ccc(-c2cccc(C(F)(F)F)c2)o1 [Compound 196, N-((S)-1-(2-(5-fluoroindolin-1-yl)ethylcarbamoyl)-2-(3-chlorophenyl)ethyl)-5-(3-(trifluoromethyl)phenyl)furan-2-carboxamide] | < 1
C[C@@H](CNc1cc(F)ccc1Cl)NC(=O)[C@H](CC1CCCCC1)NC(=O)c1ccc(-c2cccc(F)c2)o1 [Compound 112, 5-(3-Fluoro-phenyl)-furan-2-carboxylic acid {1-(S)-[2-(2-chloro-5-fluoro-phenylamino)-1-(S)-methyl-ethylcarbamoyl]-2-cyclohexyl-ethyl}-amide] | < 1
Cc1cc(NC[C@H](C)NC(=O)[C@H](CC2CCCCC2)NC(=O)c2ccc(-c3cccc(F)c3)o2)sn1 [Compound 267, 5-(3-Fluoro-phenyl)-furan-2-carboxylic acid {2-cyclohexyl-1-(S)-[1-(S)-methyl-2-(3-methyl-isothiazol-5-ylamino)-ethylcarbamoyl]-ethyl}-amide] | < 1
O=C(N[C@@H](CC1CCCCC1)C(=O)NCCN1CCc2cc(F)ccc21)c1csc(-c2ccccc2)n1 [Compound 76, 2-Phenyl-thiazole-4-carboxylic acid (S)-{2-cyclohexyl-1-[2-(5-fluoro-2,3-dihydro-indol-1-yl)-ethylcarbamoyl]-ethyl}-amide] | < 0.1
C[C@@H](CNc1ccc(OC(F)F)cc1)NC(=O)[C@H](CC1CCCCC1)NC(=O)c1ccc(-c2cccc(F)c2)o1 [Compound 84, 5-(3-Fluoro-phenyl)-furan-2-carboxylic acid {2-cyclohexyl-1-(S)-[2-(4-difluoromethoxy-phenylamino)-1-(S)-methyl-ethylcarbamoyl]-ethyl}-amide] | < 0.1
C[C@@H](CNc1cccc(C(N)=O)c1)NC(=O)[C@H](CC1CCCCC1)NC(=O)c1ccc(-c2cccc(F)c2)o1 [Compound 98, 5-(3-Fluoro-phenyl)-furan-2-carboxylic acid {1-(S)-[2-(3-carbamoyl-phenylamino)-1-(S)-methyl-ethylcarbamoyl]-2-cyclohexyl-ethyl}-amide] | < 0.1
C[C@@H](CNc1cccc(S(C)(=O)=O)c1)NC(=O)[C@H](CC1CCCCC1)NC(=O)c1ccc(-c2ccc(F)cc2)o1 [Compound 106, 5-(4-Fluoro-phenyl)-furan-2-carboxylic acid {2-cyclohexyl-1-(S)-[2-(3-methanesulfonyl-phenylamino)-1-(S)-methyl-ethylcarbamoyl]-ethyl}-amide] | < 0.1
COc1cccc(C(=O)N[C@@H](CCC2CCCCC2)C(=O)NCCN2CCc3cccc(F)c32)c1 [Compound 11, (S)-N-{3-Cyclohexyl-1-[2-(7-fluoro-2,3-dihydro-indol-1-yl)-ethylcarbamoyl]-propyl}-3-methoxy-benzamide] | < 10
COc1cccc(C(=O)N[C@@H](CC(C)(C)C)C(=O)N[C@@H](Cc2nnn[nH]2)CN2CCc3cc(F)ccc32)c1 [Compound 166, N-{1-(S)-[2-(5-Fluoro-2,3-dihydro-indol-1-yl)-1-(S)-(1H-tetrazol-5-ylmethyl)-ethylcarbamoyl]-3,3-dimethyl-butyl}-3-methoxy-benzamide] | < 0.1
CC(C)(C)C[C@H](NC(=O)OCc1ccccc1)C(=O)N[C@@H](CC(=O)OC(C)(C)C)CN1CCc2cc(F)ccc21 [Compound 158, 3-(S)-(2-(S)-Benzyloxycarbonylamino-4,4-dimethyl-pentanoylamino)-4-(5-fluoro-2,3-dihydro-indol-1-yl)-butyric acid tert-butyl ester] | < 1
COc1ccc(NC[C@@H](C)NC(=O)[C@H](CCC2CCCCC2)NC(=O)c2cc3ccccc3[nH]2)cc1 [Compound 25, 1H-Indole-2-carboxylic acid {3-cyclohexyl-(1S)-[2-(4-methoxy-phenylamino)-(1R)-methyl-ethylcarbamoyl]-propyl}-amide] | < 10
Cc1cccc(C(=O)N[C@@H](Cc2cccc(Cl)c2)C(=O)NCCN2CCc3cc(F)ccc32)c1 [Compound 197, N-((S)-1-(2-(5-fluoroindolin-1-yl)ethylcarbamoyl)-2-(3-chlorophenyl)ethyl)-3-methylbenzamide] | < 1
C[C@@H](CN1CC(C)(C)c2cc(F)ccc21)NC(=O)[C@H](CC1CCCCC1)NC(=O)O[C@H]1CCOC1 [Compound 217, (S,S)-{2-Cyclohexyl-1-[2-(5-fluoro-3,3-dimethyl-2,3-dihydro-indol-1-yl)-1-methyl-ethylcarbamoyl]-ethyl}-carbamic acid (S)-tetrahydro-furan-3-yl ester] | < 0.1
COCCC(=O)N[C@@H](CC1CCCCC1)C(=O)N[C@@H](C)CNc1ccc(OC(F)(F)F)cc1 [Compound 123, 3-Cyclohexyl-2-(S)-(3-methoxy-propionylamino)-N-[1-(S)-methyl-2-(4-trifluoromethoxy-phenylamino)-ethyl]-propionamide] | < 0.1
C[C@@H](CNc1cc(F)cc(F)c1)NC(=O)[C@H](CC1CCCCC1)NC(=O)c1ccc(-c2cccc(F)c2)o1 [Compound 87, 5-(3-Fluoro-phenyl)-furan-2-carboxylic acid {2-cyclohexyl-1-(S)-[2-(3,5-difluoro-phenylamino)-1-(S)-methyl-ethylcarbamoyl]-ethyl}-amide] | < 0.1
Cn1cnc(S(=O)(=O)N[C@@H](CC2CCCCC2)C(=O)NCCN2CCc3cc(F)ccc32)c1 [Compound 255, (S)-3-Cyclohexyl-N-[2-(5-fluoro-2,3-dihydro-indol-1-yl)-ethyl]-2-(1-methyl-1H-imidazole-4-sulfonylamino)-propionamide] | < 1
C[C@@H](C(=O)N[C@@H](CC1CCCCC1)C(=O)NCCN1CCc2cc(F)ccc21)c1ccccc1 [Compound 70, N-{2-cyclohexyl-1-(S)-[2-(5-fluoro-2,3-dihydro-indol-1-yl)-ethylcarbamoyl]-ethyl}-2-(R)-phenyl-propionamide] | < 0.1
C[C@@H](CN1CCc2cc(F)ccc21)NC(=O)[C@H](CC(C)(C)C)NC(=O)c1ccnnc1 [Compound 178, Pyridazine-4-carboxylic acid {1-(S)-[2-(5-fluoro-2,3-dihydro-indol-1-yl)-1-(S)-methyl-ethylcarbamoyl]-3,3-dimethyl-butyl}-amide] | < 0.1
COc1cccc(C(=O)N[C@@H](CC2CCCCC2)C(=O)N[C@@H](CC(=O)O)CN2CCc3cc(F)ccc32)c1 [Compound 162, 3-(S)-[3-Cyclohexyl-2-(S)-(3-methoxy-benzoylamino)-propionylamino]-4-(5-fluoro-2,3-dihydro-indol-1-yl)-butyric acid] | < 0.1
COc1cccc(C(=O)N[C@@H](CC2CCCCC2)C(=O)N[C@@H](COCc2ccccc2)CN2CCc3cc(F)ccc32)c1 [Compound 149, N-{1-(S)-[1-(R)-Benzyloxymethyl-2-(5-fluoro-2,3-dihydro-indol-1-yl)-ethylcarbamoyl]-2-cyclohexyl-ethyl}-3-methoxy-benzamide] | < 0.1
O=C(C[C@@H](CN1CCc2cc(F)ccc21)NC(=O)[C@H](CC1CCCCC1)NC(=O)OCc1ccccc1)OCc1ccccc1 [Compound 168, 3-(S)-(2-(S)-Benzyloxycarbonylamino-3-cyclohexyl-propionylamino)-4-(5-fluoro-2,3-dihydro-indol-1-yl)-butyric acid benzyl ester] | < 0.1
O=C(N[C@@H](CC1CCCCC1)C(=O)NCCN1CCc2cc(F)ccc21)C1CC1 [Compound 14, Cyclopropanecarboxylic acid (S)-{2-cyclohexyl-1-[2-(5-fluoro-2,3-dihydro-indol-1-yl)-ethylcarbamoyl]-ethyl}-amide] | < 0.1
COc1ccc(NC[C@H](C)NC(=O)[C@H](CC2CCCCC2)NC(=O)c2ccc(-c3ccc(F)cc3)o2)cc1 [Compound 105, 5-(4-Fluoro-phenyl)-furan-2-carboxylic acid {2-cyclohexyl-1-(S)-[2-(4-methoxy-phenylamino)-1-(S)-methyl-ethylcarbamoyl]-ethyl}-amide] | < 0.1
COc1ccc(NC[C@H](C)NC(=O)[C@H](CC2CCCCC2)NC(=O)c2ccc(-c3cccc(F)c3)o2)cc1 [Compound 86, 5-(3-Fluoro-phenyl)-furan-2-carboxylic acid {2-cyclohexyl-1-(S)-[2-(4-methoxy-phenylamino)-1-(S)-methyl-ethylcarbamoyl]-ethyl}-amide] | < 0.1
COc1ccc(N[C@H]2CCCC[C@H]2NC(=O)[C@H](CC(C)C)NC(=O)c2cccc(C)c2)cc1 (mixture of isomers) [Compound 33, N-{1-(S)-[cis-2-(4-Methoxy-phenylamino)-cyclohexylcarbamoyl]-3-methyl-butyl}-3-methyl-benzamide] | < 1
O=C(N[C@@H](Cc1ccccc1)C(=O)NCCN1CCc2cc(F)ccc21)c1ccc(-c2cccc(C(F)(F)F)c2)o1 [Compound 206, N-((S)-1-(2-(5-fluoroindolin-1-yl)ethylcarbamoyl)-2-phenylethyl)-5-(3-(trifluoromethyl)phenyl)furan-2-carboxamide] | < 1
C[C@@H](CNc1ccc(OC(F)(F)F)cc1)NC(=O)[C@H](CC1CCCCC1)NC(=O)O[C@@H]1CCOC1 [Compound 188, {2-Cyclohexyl-1-(S)-[1-(S)-methyl-2-(4-trifluoromethoxy-phenylamino)-ethylcarbamoyl]-ethyl}-carbamic acid tetrahydrofuran-3-(R)-yl ester] | < 0.1
O=C(Nc1ccc(-c2ccccc2)s1)N[C@@H](CC1CCCCC1)C(=O)NCCN1CCc2cc(F)ccc21 [Compound 219, (S)-3-Cyclohexyl-N-[2-(5-fluoro-2,3-dihydro-indol-1-yl)-ethyl]-2-[3-(5-phenyl-thiophen-2-yl)-ureido]-propionamide] | < 10
